# Source: patent US11161855B2, “Tricyclic fused thiophene derivatives as JAK inhibitors” (Incyte Corporation, priority 2012, dated 2021)
# Tested on: human JAK1 (a.a. 837-1142)
# Test: In vitro JAK kinase assay (HTRF), JAK1
# Assay type: biochemical
# Conditions: ratio of IC50s, 1 mM ATP
# Protocol: Compounds herein were tested for inhibitory activity of JAK targets according to the following in vitro assay described in Park et al., Analytical Biochemistry 1999, 269, 94-104. The catalytic domains of human JAK1 (a.a. 837-1142), JAK2 (a.a. 828-1132) and JAK3 (a.a. 781-1124) were expressed using baculovirus in insect cells and purified. The catalytic activity of JAK1, JAK2 or JAK3 was assayed by measuring the phosphorylation of a biotinylated peptide. The phosphorylated peptide was detected by homogenous time resolved fluorescence (HTRF). IC50s of compounds were measured for each kinase in the 40 μL reactions that contain the enzyme, ATP and 500 nM peptide in 50 mM Tris (pH 7.8) buffer with 100 mM NaCl, 5 mM DTT, and 0.1 mg/mL (0.01%) BSA. For the 1 mM IC50 measurements, ATP concentration in the reactions was 1 mM. Reactions were carried out at room temperature for 1 hour and then stopped with 20 μL 45 mM EDTA, 300 nM SA-APC, 6 nM Eu-Py20 in assay buffer (Perkin Elmer, Boston, Mass.). Binding to the Europium labeled antibody took place for 40 minutes and HTRF signal was measured on a PHERA star plate reader (BMG, Cary, N.C.). The Example compounds were each tested in the Example A assay (see Table 1 for data for the compounds of the examples as tested by the assay of Example A at 1 mM ATP).
row,Compound,JAK2/JAK1
1,"C[C@H](O)c1nc2cnc3ccsc3c2n1[C@H]1CC[C@H](CC#N)OC1 [Example 45, ((2R,5S)-5-{2-[(1S)-1-Hydroxyethyl]-1H-imidazo[4,5-d]thieno[3,2-b]pyridin-1-yl}tetrahydro-2H-pyran-2-yl)acetonitrile]",>10
2,"Cc1nn2cnc3ccsc3c2c1-c1ccc(CC#N)cc1 [Example 46, [4-(8-Methylpyrazolo[1,5-c]thieno[2,3-e]pyrimidin-9-yl)phenyl]acetonitrile]",>3
3,"CCc1nc2cnc3ccsc3c2n1[C@H]1CC[C@H](CC#N)CC1 [Example 47, [trans-4-(2-Ethyl-1H-imidazo[4,5-d]thieno[3,2-b]pyridin-1-yl)cyclohexyl]acetonitrile]",>10
4,"Cc1nc2cnc3ccsc3c2n1[C@H]1CC[C@H](CC#N)CC1 [Example 48, [trans-4-(2-Methyl-1H-imidazo[4,5-d]thieno[3,2-b]pyridin-1-yl)cyclohexyl]acetonitrile]",>7
5,"C[C@@H](O)c1nc2cnc3ccsc3c2n1[C@H]1CC[C@@H](CC#N)C1.O=C(O)C(F)(F)F [Example 49, ((1R,3S)-3-{2-[(1R)-1-Hydroxyethyl]-1H-imidazo[4,5-d]thieno[3,2-b]pyridin-1-yl}cyclopentyl)acetonitrile Trifluoroacetate]",>10
6,"CCOC(=O)N1CCC[C@H](n2c([C@@H](C)O)nc3cnc4ccsc4c32)C1 [Example 50, Ethyl (3S)-3-{2-[(1R)-1-hydroxyethyl]-1H-imidazo[4,5-d]thieno[3,2-b]pyridin-1-yl}piperidine-1-carboxylate]",>10
7,"C[C@@H](O)c1nc2cnc3ccsc3c2n1[C@H]1CCCN(C(=O)CC#N)C1.O=C(O)C(F)(F)F [Example 51, 3-((3S)-3-{2-[(1R)-1-Hydroxyethyl]-1H-imidazo[4,5-d]thieno[3,2-b]pyridin-1-yl}piperidin-1-yl)-3-oxopropanenitrile trifluoroacetate]",>10
8,"C[C@@H](O)c1nc2cnc3ccsc3c2n1[C@H]1CCCN(C(=O)CCc2cn[nH]c2)C1 [Example 53, (1R)-1-(1-{(3S)-1-[3-(1H-Pyrazol-4-yl)propanoyl]piperidin-3-yl}-1H-imidazo[4,5-d]thieno[3,2-b]pyridin-2-yl)ethanol]",>10
9,"C[C@@H](O)c1nc2cnc3ccsc3c2n1[C@H]1CCCN(C(=O)CCc2cccnc2)C1 [Example 54, (1R)-1-{1-[(3S)-1-(3-Pyridin-3-ylpropanoyl)piperidin-3-yl]-1H-imidazo[4,5-d]thieno[3,2-b]pyridin-2-yl}ethanol]",>10
10,"CC(CC(=O)N1CCC[C@H](n2c([C@@H](C)O)nc3cnc4ccsc4c32)C1)c1ccccc1 (stereo partly drawn) [Example 55, (1R)-1-{1-[(3S)-1-(3-Phenylbutanoyl)piperidin-3-yl]-1H-imidazo[4,5-d]thieno[3,2-b]pyridin-2-yl}ethanol]",>10
11,"C[C@@H](O)c1nc2cnc3ccsc3c2n1[C@H]1CCCN(CCC#N)C1 [Example 56, 3-((3S)-3-{2-[(1R)-1-Hydroxyethyl]-1H-imidazo[4,5-d]thieno[3,2-b]pyridin-1-yl}piperidin-1-yl)propanenitrile]",>10
12,C[C@@H](O)c1nc2cnc3ccsc3c2n1[C@H]1CCCN(C(=O)CCc2ccccc2)C1 [Example 57],>10
13,"C[C@@H](O)c1nc2cnc3ccsc3c2n1[C@H]1CCCN(C(=O)CCC#N)C1 [Example 58, 4-((3S)-3-{2-[(1R)-1-Hydroxyethyl]-1H-imidazo[4,5-d]thieno[3,2-b]pyridin-1-yl}piperidin-1-yl)-4-oxobutanenitrile]",>10
14,"C[C@@H](O)c1nc2cnc3ccsc3c2n1[C@H]1CCCN(C(=O)CCCC#N)C1 [Example 59, 5-((3S)-3-{2-[(1R)-1-Hydroxyethyl]-1H-imidazo[4,5-d]thieno[3,2-b]pyridin-1-yl}piperidin-1-yl)-5-oxopentanenitrile]",>10
15,"C[C@@H](O)c1nc2cnc3ccsc3c2n1C1CCN(CCCC(F)(F)F)CC1 [Example 60, (1R)-1-{1-[1-(4,4,4-Trifluorobutyl)piperidin-4-yl]-1H-imidazo[4,5-d]thieno[3,2-b]pyridin-2-yl}ethanol]",>10
16,"C[C@@H](O)c1nc2cnc3ccsc3c2n1C1CCN(CC#N)CC1.O=C(O)C(F)(F)F [Example 61, (4-{2-[(1R)-1-Hydroxyethyl]-1H-imidazo[4,5-d]thieno[3,2-b]pyridin-1-yl}piperidin-1-yl)acetonitrile trifluoroacetate]",>10

row,Compound,JAK2/JAK1
1,"C[C@@H](O)c1nc2cnc3ccsc3c2n1[C@H]1CCN(CCC#N)C1 [Example 62, 3-((3S)-3-{2-[(1R)-1-Hydroxyethyl]-1H-imidazo[4,5-d]thieno[3,2-b]pyridin-1-yl}pyrrolidin-1-yl)propanenitrile]",>10
2,"C[C@@H](O)c1nc2cnc3ccsc3c2n1[C@H]1CCN(C(=O)CC#N)C1 [Example 63, 3-((3S)-3-{2-[(1R)-1-Hydroxyethyl]-1H-imidazo[4,5-d]thieno[3,2-b]pyridin-1-yl}pyrrolidin-1-yl)-3-oxopropanenitrile]",>6
3,"C[C@@H](O)c1nc2cnc3ccsc3c2n1[C@H]1CCN(CCCC(F)(F)F)C1 [Example 64, (1R)-1-{1-[(3S)-1-(4,4,4-Trifluorobutyl)pyrrolidin-3-yl]-1H-imidazo[4,5-d]thieno[3,2-b]pyridin-2-yl}ethanol]",>10
4,"C[C@@H](O)c1nc2cnc3ccsc3c2n1[C@H]1CCN(CCCC#N)C1 [Example 65, 4-((3S)-3-{2-[(1R)-1-Hydroxyethyl]-1H-imidazo[4,5-d]thieno[3,2-b]pyridin-1-yl}pyrrolidin-1-yl)butanenitrile]",>10
5,"C[C@@H](O)c1nc2cnc3ccsc3c2n1[C@H]1CCN(CCCCC#N)C1 [Example 66, 5-((3S)-3-{2-[(1R)-1-Hydroxyethyl]-1H-imidazo[4,5-d]thieno[3,2-b]pyridin-1-yl}pyrrolidin-1-yl)pentanenitrile]",>10
6,"C[C@@H](O)c1nc2cnc3ccsc3c2n1[C@H]1CC[C@H](CC#N)[C@H](N)C1 [Example 67, ((1R,2R,4S)-2-Amino-4-{2-[(1R)-1-hydroxyethyl]-1H-imidazo[4,5-d]thieno[3,2-b]pyridin-1-yl}cyclohexyl)acetonitrile]",>10
7,"CC(N)c1nc2cnc3ccsc3c2n1[C@H]1CC[C@H](CC#N)OC1.O=C(O)C(F)(F)F (stereo partly drawn) [Example 68, {(2R,5S)-5-[2-(1-Aminoethyl)-1H-imidazo[4,5-d]thieno[3,2-b]pyridin-1-yl]tetrahydro-2H-pyran-2-yl}acetonitrile Trifluoro Acetate]",>10
8,"CC(=O)NC(C)c1nc2cnc3ccsc3c2n1[C@H]1CC[C@H](CC#N)OC1 (stereo partly drawn) [Example 69, N-(1-{1-[(3S,6R)-6-(Cyanomethyl)tetrahydro-2H-pyran-3-yl]-1H-imidazo[4,5-d]thieno[3,2-b]pyridin-2-yl}ethyl) acetamide]",>10
9,"CNC(C)c1nc2cnc3ccsc3c2n1[C@H]1CC[C@H](CC#N)OC1 (stereo partly drawn) [Example 70, ((2R,5S)-5-{2-[1-(Methylamino)ethyl]-1H-imidazo[4,5-d]thieno[3,2-b]pyridin-1-yl}tetrahydro-2H-pyran-2-yl)acetonitrile]",>10
10,"CC(F)c1nc2cnc3ccsc3c2n1[C@H]1CC[C@H](CC#N)OC1 (stereo partly drawn) [Example 71, {(2R,5S)-5-[2-(1-Fluoroethyl)-1H-imidazo[4,5-d]thieno[3,2-b]pyridin-1-yl]tetrahydro-2H-pyran-2-yl}acetonitrile]",>10
11,"N#CCc1nc2cnc3ccsc3c2n1[C@H]1CC[C@H](CC#N)OC1 [Example 73, {(2R,5S)-5-[2-(Cyanomethyl)-1H-imidazo[4,5-d]thieno[3,2-b]pyridin-1-yl]tetrahydro-2H-pyran-2-yl}acetonitrile]",>10
12,"N#CCc1nc2cnc3ccsc3c2n1[C@H]1CC[C@@H](CC#N)OC1 [Example 74, {(2S,5S)-5-[2-(Cyanomethyl)-1H-imidazo[4,5-d]thieno[3,2-b]pyridin-1-yl]tetrahydro-2H-pyran-2-yl}acetonitrile]",>10
13,"C[C@@H](O)c1nc2cnc3ccsc3c2n1[C@H]1CC[C@H](CNS(C)(=O)=O)OC1 [Example 75, N-[((2R,5S)-5-{2-[(1R)-1-Hydroxyethyl]-1H-imidazo[4,5-d]thieno[3,2-b]pyridin-1-yl}tetrahydro-2H-pyran-2-yl)methyl]methanesulfonamide]",>10
14,"CC(C)OC(=O)NC[C@H]1CC[C@H](n2c([C@@H](C)O)nc3cnc4ccsc4c32)CO1 [Example 76, Isopropyl [((2R,5S)-5-{2-[(1R)-1-hydroxyethyl]-1H-imidazo[4,5-d]thieno[3,2-b]pyridin-1-yl}tetrahydro-2H-pyran-2-yl)methyl]carbamate]",>10
15,"COC(=O)NC[C@H]1CC[C@H](n2c([C@@H](C)O)nc3cnc4ccsc4c32)CC1 [Example 78, Methyl [(trans-4-{2-[(1R)-1-hydroxyethyl]-1H-imidazo[4,5-d]thieno[3,2-b]pyridin-1-yl}cyclohexyl)methyl]carbamate]",>10
16,"CC(=O)NC[C@H]1CC[C@H](n2c([C@@H](C)O)nc3cnc4ccsc4c32)CC1 [Example 79, N-[(trans-4-{2-[(1R)-1-Hydroxyethyl]-1H-imidazo[4,5-d]thieno[3,2-b]pyridin-1-yl}cyclohexyl)methyl]acetamide]",>10
